Read-outs that look alike come from different tables or passages of the source.
Tests used:
[1] = biological target: T1, Recombinant STAT3 protein (STAT3 (G127-I722)) (Homo sapiens, UniProt P40763); experiment: STAT3 Fluorescence Polarization (FP) Assay; format: binding; conditions: probe 5-FAM-GpYLPQTV-NH2 2 nM, 45-minute incubation
T1 construct: Recombinant STAT3 protein (STAT3 (G127-I722))
Summary of the method: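 Compounds in serial dilution receive a premix of STAT3 (G127-I722, 25 nM) and fluorescent phosphotyrosine peptide 5-FAM-GpYLPQTV-NH2 (2 nM) at pH 7.4. After 45 min at room temperature, FP is measured and IC50 derived by nonlinear regression.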

[2] = biological target: T2, Recombinant STAT6 protein (STAT6 (W123-T658)) (Homo sapiens, UniProt P42226); experiment: STAT6 Fluorescence Polarization (FP) Assay; format: binding; conditions: 45-minute incubation
T2 construct: Recombinant STAT6 protein (STAT6 (W123-T658))
T2 sequence (P42226 123-658): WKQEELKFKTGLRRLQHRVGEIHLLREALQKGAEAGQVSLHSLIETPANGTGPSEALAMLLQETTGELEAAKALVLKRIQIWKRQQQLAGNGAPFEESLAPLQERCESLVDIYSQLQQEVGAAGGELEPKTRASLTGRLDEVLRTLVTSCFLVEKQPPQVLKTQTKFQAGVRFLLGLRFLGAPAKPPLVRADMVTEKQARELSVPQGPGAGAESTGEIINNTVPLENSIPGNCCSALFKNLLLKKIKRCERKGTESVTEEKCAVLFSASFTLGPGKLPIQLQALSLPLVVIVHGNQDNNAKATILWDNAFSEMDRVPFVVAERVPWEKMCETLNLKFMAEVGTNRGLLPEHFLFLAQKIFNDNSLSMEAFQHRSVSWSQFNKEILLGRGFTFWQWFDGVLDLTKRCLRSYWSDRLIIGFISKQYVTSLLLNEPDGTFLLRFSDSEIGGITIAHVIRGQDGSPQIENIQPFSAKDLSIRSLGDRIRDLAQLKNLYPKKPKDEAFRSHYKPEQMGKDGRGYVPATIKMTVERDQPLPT
Summary of the method: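 STAT6 (W123-T658) at 250 nM was mixed with 2 nM 5-FAM-labeled phosphotyrosine peptide probe in HEPES pH 7.4 buffer with NaCl, EDTA, Tween 20 and DTT, then added to serially diluted compounds at 1% DMSO final. Polarization was read after 45 min at room temperature; IC50 came from nonlinear regression of mP versus log concentration.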

[3] = STAT3 25 nM, read-out: STAT3 (FP assay IC50)
[4] = STAT3 (G127-I722) 25 nM, read-out: STAT3 (FP assay IC50 class)
[5] = STAT6 (W123-T658) 250 nM, probe 5-FAM-Ap[…]-NH2 2 nM, read-out: STAT6 (FP assay IC50 class)
[6] = STAT6 250 nM, probe 5-FAM-Ap[…]-NH2 2 nM, read-out: STAT6 (FP assay IC50)

T1 sequence (P40763 127-722): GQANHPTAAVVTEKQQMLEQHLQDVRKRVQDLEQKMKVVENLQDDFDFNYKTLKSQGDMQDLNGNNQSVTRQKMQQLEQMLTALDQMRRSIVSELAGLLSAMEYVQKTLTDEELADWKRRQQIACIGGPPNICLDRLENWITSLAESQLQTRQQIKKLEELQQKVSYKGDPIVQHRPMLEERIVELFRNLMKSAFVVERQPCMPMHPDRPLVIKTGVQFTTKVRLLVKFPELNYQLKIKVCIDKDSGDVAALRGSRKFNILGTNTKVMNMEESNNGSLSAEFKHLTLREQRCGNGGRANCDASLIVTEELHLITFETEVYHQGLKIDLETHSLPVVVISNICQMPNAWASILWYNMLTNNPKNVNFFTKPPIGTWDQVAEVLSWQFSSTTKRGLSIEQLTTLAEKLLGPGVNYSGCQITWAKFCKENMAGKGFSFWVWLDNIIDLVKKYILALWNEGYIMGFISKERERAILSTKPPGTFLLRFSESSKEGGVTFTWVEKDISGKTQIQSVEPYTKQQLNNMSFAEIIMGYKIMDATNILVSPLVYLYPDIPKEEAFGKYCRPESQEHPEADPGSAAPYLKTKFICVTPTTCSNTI

Row | Compound | IC50 [1, 4] | IC50 [2, 5] | also measured
1 | N#C[C@H]1CN(C(=O)[C@@H]2CC[C@@H]3CCCC[C@H](NC(=O)c4ccc5ccc(C(F)(F)P(=O)(O)O)cc5c4)C(=O)N32)C[C@@H]1c1cc[nH]c(=O)c1 (single isomer, unassigned) [Compound 80, ((7-(((3S,6S,10aS)-3-((3R,4S or 3S,4R)-3-cyano-4-(2-oxo-1,2-dihydropyridin-4-yl)pyrrolidine-1-carbonyl)-5-oxodecahydropyrrolo [1,2-a]azocin-6-yl)carbamoyl)naphthalen-2-yl)difluoromethyl) phosphonic acid] | – | – | IC50 [1, 3]: 100 to 1000 nM; IC50 ([2]; STAT6 250 nM, probe 5-FAM-ApYKPFQDLI-NH2 2 nM, read-out: STAT6 (FP assay IC50)): ≤ 300 nM
2 | O=C(N[C@H]1CCCC[C@H]2CC[C@@H](C(=O)N3CC(Cc4ccccn4)C3)N2C1=O)c1cc2cc(C(F)(F)P(=O)(O)O)ccc2s1 [Compound 718, (difluoro(2-(((3S,6S,10aS)-5-oxo-3-(3-(pyridin-2-ylmethyl)azetidine-1-carbonyl)decahydropyrrolo[1,2-a]azocin-6-yl)carbamoyl)benzo [b]thiophen-5-yl)methyl) phosphonic acid] | < 100 nM | 300 to 3000 nM | –
3 | CC(=O)N1CCOC2(C1)CN(C(=O)[C@@H]1CC[C@@H]3CCC[C@H](NC(=O)c4cc5cc(C(F)P(=O)(O)O)ccc5s4)C(=O)N31)C2 (stereo partly drawn) [Compound 770, ((2-(((3S,6S,9aS)-3-(8-acetyl-5-oxa-2,8-diazaspiro[3.5]nonane-2-carbonyl)-5-oxooctahydro-1H-pyrrolo[1,2-a]azepin-6-yl)carbamoyl)benzo [b]thiophen-5-yl)fluoromethyl) phosphonic acid] | 1000 to 10000 nM | 3000 to 30000 nM | –
4 | Cc1[nH]nc2ccc(NC(=O)[C@@H]3CC[C@@H]4CCCC[C@H](NC(=O)c5cc6cc(C(F)(F)P(=O)(O)O)ccc6s5)C(=O)N43)cc12 [Compound 59, (difluoro(2-(((3S,6S,10aS)-3-((3-methyl-2H-indazol-5-yl)carbamoyl)-5-oxodecahydro-pyrrolo[1,2-a]azocin-6-yl)carbamoyl)benzo[b]thiophen-5-yl)methyl) phosphonic acid] | – | – | IC50 [1, 3]: 100 to 1000 nM; IC50 [2, 6]: 300 to 3000 nM
5 | O=C(N[C@H]1CCC[C@H]2CC[C@@H](C(=O)N3C(=O)N(c4cccnc4)C(=O)C34CC4)N2C1=O)c1cc2cc([C@H](F)P(=O)(O)O)ccc2s1 [Compound 915, ((R)-(2-(((3S,6S,9aS)-3-(5,7-dioxo-6-(pyridin-3-yl)-4,6-diazaspiro[2.4]heptane-4-carbonyl)-5-oxooctahydro-1H-pyrrolo[1,2-a]azepin-6-yl)carbamoyl)benzo [b]thiophen-5-yl)fluoromethyl) phosphonic acid] | 1000 to 10000 nM | ≤ 300 nM | –
6 | N#C[C@H]1CN(C(=O)[C@@H]2CC[C@@H]3/C=C\CC[C@H](NC(=O)c4cc5cc(C(F)(F)P(=O)(O)O)ccc5s4)C(=O)N32)C[C@@H]1c1ccccc1 (relative stereo) [Compound 27, ((2-(((3S,6S,10aR,Z)-3-(rel-trans)3-cyano-4-phenylpyrrolidine-1-carbonyl)-5-oxo-1,2,3,5,6,7,8,10a-octahydropyrrolo[1,2-a]azocin-6-yl)carbamoyl)benzo[b]thiophen-5-yl) difluoromethyl) phosphonic acid] | – | – | IC50 [1, 3]: 1000 to 10000 nM; IC50 [2, 6]: ≤ 300 nM
7 | O=C(N[C@H]1CCCC[C@H]2CC[C@@H](C(=O)N3C[C@@H](c4cccnc4)CC34CC4)N2C1=O)c1cc2cc(CP(=O)(O)O)ccc2s1 [Compound 244, ((2-(((3S,6S,10aS)-5-ox0-3-((R)-6-(pyridin-3-yl)-4-azaspiro[2.4]heptane-4-carbonyl)decahydropyrrolo[1,2-a]azocin-6-yl)carbamoyl)benzo[b]thiophen-5-yl)methyl)phosphonic acid] | 1000 to 10000 nM | 300 to 3000 nM | –
8 | N#C[C@@H]1CN(C(=O)[C@@H]2CC[C@@H]3CCCC[C@H](NC(=O)c4cc5cc(C(F)(F)P(=O)(O)O)ccc5s4)C(=O)N32)C[C@H]1C1CC1 (relative stereo) [Compound 102, ((2-(((3S,6S,10aS)-3-(rel-(trans)-3-cyano-4-cyclopropyl-pyrrolidine-1-carbonyl)-5-oxodecahydropyrrolo [1,2-a]azocin-6-yl)carbamoyl)benzo[b]thiophen-5-yl)difluoromethyl) phosphonic acid] | – | – | IC50 [1, 3]: 100 to 1000 nM; IC50 [2, 6]: 300 to 3000 nM
9 | (difluoro(2- (((3S,6S,10aS)-5- oxo-3-((1R,5S,6R)- 6-phenyl-3- azabicyclo[3.1.0] hexane-3- carbonyl)decahydro pyrrolo[1,2- a]azocin-6- yl)carbamoyl)benzo [b]thiophen-5- yl)methyl) phosphonic acid [Compound 805] | 100 to 1000 nM | – | IC50 ([2]; STAT6 (W123-T658) 250 nM, probe 5-FAM-ApYKPFQDLI-NH2 2 nM, read-out: STAT6 (FP assay IC50 class)): 3000 to 30000 nM
10 | COc1c(C2CN(C(=O)[C@@H]3CC[C@@H]4CCC[C@H](NC(=O)c5cc6cc(C(F)P(=O)(O)O)ccc6s5)C(=O)N43)C2)ccnc1C#N (stereo partly drawn) [Compound 932, ((2-(((3S,6S,9aS)-3-(3-(2-cyano-3-methoxypyridin-4-yl)azetidine-1-carbonyl)-5-oxooctahydro-1H-pyrrolo[1,2-a]azepin-6-yl)carbamoyl)benzo [b]thiophen-5-yl)fluoromethyl) phosphonic acid] | < 100 nM | 3000 to 30000 nM | –
11 | Cc1c(F)cncc1C1CN(C(=O)[C@@H]2CC[C@@H]3CCC[C@H](NC(=O)c4cc5cc(CP(=O)(O)O)ccc5s4)C(=O)N32)C1 [Compound 504, ((2-(((3S,6S,9aS)-3-(3-(5-fluoro-4-methylpyridin-3-yl)azetidine-1-carbonyl)-5-oxooctahydro-1H-pyrrolo[1,2-a]azepin-6-yl)carbamoyl)benzo[b]thiophen-5-yl)methyl)phosphonic acid] | 1000 to 10000 nM | 3000 to 30000 nM | –

Now from value to compound, other results behind:

Row | IC50 [1, 4] | IC50 [2, 5] | Compound | also measured
12 | < 100 nM | 300 to 3000 nM | O=C(N[C@H]1CCCC[C@H]2CC[C@@H](C(=O)N3CC(c4cnccc4-c4ccccc4)C3)N2C1=O)c1cc2cc(C(F)(F)P(=O)(O)O)ccc2s1 [Compound 516, (difluoro(2-(((3S,6S,10aS)-5-oxo-3-(3-(4-phenylpyridin-3-yl)azetidine-1-carbonyl)decahydropyrrolo[1,2-a]azocin-6-yl)carbamoyl)benzo[b]thiophen-5-yl)methyl)phosphonic acid] | –
13 | 1000 to 10000 nM | 300 to 3000 nM | O=C(N[C@H]1CCCC[C@H]2CC[C@@H](C(=O)N3CCCC34CC4)N2C1=O)c1cc2cc(C(F)(F)P(=O)(O)O)ccc2s1 [Compound 786, (difluoro(2-(((3S,6S,10aS)-5-oxo-3-(4-azaspiro[2.4]heptane-4-carbonyl)decahydropyrrolo[1,2-a]azocin-6-yl)carbamoyl)benzo [b]thiophen-5-yl)methyl) phosphonic acid] | –
14 | < 100 nM | 3000 to 30000 nM | O=C(N[C@H]1CCC[C@H]2CC[C@@H](C(=O)N3CC(c4cnccc4N4CCOCC4)C3)N2C1=O)c1cc2cc(CP(=O)(O)O)ccc2s1 [Compound 750, ((2-(((3S,6S,9aS)-3-(3-(4-morpholinopyridin-3-yl)azetidine-1-carbonyl)-5-oxooctahydro-1H-pyrrolo[1,2-a]azepin-6-yl)carbamoyl)benzo [b]thiophen-5-yl)methyl) phosphonic acid] | –
15 | 1000 to 10000 nM | 300 to 3000 nM | CC1(C)C[C@H](c2ccccc2)CN1C(=O)[C@@H]1CC[C@@H]2CCCC[C@H](NC(=O)c3cc4cc(C(F)(F)P(=O)(O)O)ccc4s3)C(=O)N21 [Compound 815, ((2-(((3S,6S,10aS)-3-((R)-2,2-dimethyl-4-phenylpyrrolidine-1-carbonyl)-5-oxodecahydropyrrolo [1,2-a]azocin-6-yl)carbamoyl)benzo [b]thiophen-5-yl)difluoromethyl) phosphonic acid] | –
16 | 100 to 1000 nM | 300 to 3000 nM | O=C(N[C@H]1CCCC[C@H]2CC[C@@H](C(=O)N3CC(c4nc5ccccc5o4)C3)N2C1=O)c1cc2cc(C(F)(F)P(=O)(O)O)ccc2s1 [Compound 497, ((2-(((3S,6S,10aS)-3-(3-(benzo[d]oxazol-2-yl)azetidine-1-carbonyl)-5-oxodecahydropyrrolo[1,2-a]azocin-6-yl)carbamoyl)benzo[b]thiophen-5-yl)difluoromethyl)phosphonic acid] | –
